Source: ChEMBL document CHEMBL3286270, “Adenosine analogue inhibitors of S-adenosylhomocysteine hydrolase” (Bioorg Med Chem Lett, 2014)
pIC50: −log10 of the molar value.

Key:
Adenosylhomocysteinase [1] = target: T1, Adenosylhomocysteinase (Homo sapiens, UniProt P23526); test: Inhibition of AHCY in human SH-SY5Y cells assessed as formation of homocysteine after 48 hrs by HPLC analysis; format: cell-based
Adenosylhomocysteinase [2] = target: T1, Adenosylhomocysteinase; test: Inhibition of recombinant human AHCY using SAH as substrate assessed as formation of homocysteine after 10 mins
[3] = Clearance in dog; format: ADME, organism-based, Canis lupus familiaris; conditions: in vivo
[4] = Clearance in rat; format: ADME, organism-based; conditions: in vivo
[5] = Plasma protein binding in rat; format: ADME, cell-free
[6] = Half life in rat; format: ADME, organism-based; conditions: in vivo
[7] = Oral bioavailability in dog; format: ADME, organism-based, Canis lupus familiaris; conditions: in vivo
[8] = Solubility of the compound at pH 7; format: physicochemical; conditions: buffer
[9] = Oral bioavailability in rat; format: ADME, organism-based; conditions: in vivo
[10] = Half life in dog; format: ADME, organism-based, Canis lupus familiaris; conditions: in vivo
[11] = Plasma protein binding in human; format: ADME, cell-free

T1 sequence (P23526 whole entry): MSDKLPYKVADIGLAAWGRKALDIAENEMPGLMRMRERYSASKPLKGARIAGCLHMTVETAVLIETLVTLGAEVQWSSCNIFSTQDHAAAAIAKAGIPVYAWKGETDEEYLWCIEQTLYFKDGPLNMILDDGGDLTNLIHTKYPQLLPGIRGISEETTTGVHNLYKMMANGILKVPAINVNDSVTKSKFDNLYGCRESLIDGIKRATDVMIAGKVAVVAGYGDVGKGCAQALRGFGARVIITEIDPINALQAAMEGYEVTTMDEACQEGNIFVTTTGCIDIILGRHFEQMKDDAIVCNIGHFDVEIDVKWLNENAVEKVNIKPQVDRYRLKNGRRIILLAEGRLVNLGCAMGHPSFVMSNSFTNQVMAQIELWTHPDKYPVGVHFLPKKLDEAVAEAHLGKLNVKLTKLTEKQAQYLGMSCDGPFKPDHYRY

| pIC50 (Adenosylhomocysteinase [1]) | pIC50 (Adenosylhomocysteinase [2]) | Structure (SMILES) | other results |
| --- | --- | --- | --- |
| 6.06 | 5.38 | Nc1ncnc2c1ncn2[C@@H]1C=C[C@@H](O)[C@H]1O |  |
| 8.82 | 7.26 | Nc1ncnc2c1ncn2[C@@H]1CC[C@@H](O)[C@H]1O |  |
| 6.06 | < 5.00 | Nc1ncc(F)c2c1ncn2[C@@H]1C[C@@H](O)[C@@H](O)[C@H]1O |  |
| 8.82 | 6.60 | Nc1nccn2c([C@@H]3CC[C@@H](O)[C@H]3O)cnc12 |  |
| < 5.00 | < 5.00 | Nc1ncnc2c1nc(F)n2[C@@H]1CC[C@@H](O)[C@H]1O |  |
| 5.68 | < 5.00 | Nc1ncnc2c1nc(Cl)n2[C@@H]1CC[C@@H](O)[C@H]1O |  |
| < 5.00 | < 5.00 | Nc1ncnc2c1nc(Br)n2[C@@H]1CC[C@@H](O)[C@H]1O |  |
| 7.01 | 5.67 | Nc1nc(F)nc2c1ncn2[C@@H]1CC[C@@H](O)[C@H]1O |  |
|  | 5.32 | Nc1nc(F)cc2c1ncn2[C@@H]1CC[C@@H](O)[C@H]1O |  |
| 8.89 | 7.40 | Nc1ncc(F)c2c1ncn2[C@@H]1CC[C@@H](O)[C@H]1O | clearance [3]: 9.6 mL/min/kg; clearance [4]: 21 mL/min/kg; PPB [5]: < 0.1%; half-life [6]: 0.9 h; bioavailability [7]: > 99%; solubility [8]: > 200 uM/ml; bioavailability [9]: 86%; half-life [10]: 3.6 h; PPB [11]: < 0.1% |
| 8.66 | 7.80 | Nc1ncc(Cl)c2c1ncn2[C@@H]1CC[C@@H](O)[C@H]1O |  |
| 7.44 | 6.63 | Cc1cnc(N)c2ncn([C@@H]3CC[C@@H](O)[C@H]3O)c12 |  |
| 6.72 | 5.44 | Nc1nc(F)c(F)c2c1ncn2[C@@H]1CC[C@@H](O)[C@H]1O |  |
| 6.17 | < 5.00 | Nc1ncc(F)c2c1ncn2[C@@H]1C[C@@H](F)[C@@H](O)[C@H]1O |  |
| 7.39 | 6.57 | Nc1ncc(F)c2c1ncn2[C@@H]1C[C@H](F)[C@@H](O)[C@H]1O |  |
| 8.03 | 7.62 | Nc1ncc(F)c2c1ncn2[C@@H]1C[C@H](O)[C@@H](O)[C@H]1O |  |
|  | 5.91 | C[C@H]1C[C@@H](n2cnc3c(N)ncc(F)c32)[C@H](O)[C@@H]1O |  |
|  | 5.01 | Nc1ncc(F)c2c1ncn2[C@@H]1C=C[C@@H](O)[C@H]1O |  |
| 5.71 | < 5.00 | Nc1ncc(F)c2c1ncn2[C@H]1[C@H](O)[C@H](O)[C@@H]2C[C@@H]21 |  |
|  | 6.01 | Nc1ncc(F)c2c1ncn2[C@@H]1C(F)=C[C@@H](O)[C@H]1O |  |
| 6.03 | 6.71 | Nc1ncnc2c1ncn2[C@@H]1C=C(CCl)[C@@H](O)[C@H]1O |  |
| 8.57 | 6.34 | Nc1ncc(F)c2c1ncn2[C@@H]1C(F)C[C@@H](O)[C@H]1O (mixture of isomers) |  |
| 8.00 | 8.82 | Nc1ncnc2c1ncn2[C@@H]1C=C(CO)[C@@H](O)[C@H]1O [NEOPLANOCIN A] |  |
